In patent US20250289829A1, “DEUBIQUITINASE INHIBITOR AND USE THEREOF” (CHASER THERAPEUTICS, INC., priority 2022, published 2025):

Key:
USP28 = target: T1, USP28 (Homo sapiens, UniProt Q96RU2); experiment: USP28 activity by the ubiquitin-rhodamine 110 (Ub-Rh110) method; format: biochemical; conditions: purified USP28 4 nM, Ub-Rh110 125 nM, 30 min preincubation; read-out: Inhibitory activity (IC50) USP28
T1 construct: purchased R&D Systems China Co., Ltd. (R&D Systems)
T1 sequence (Q96RU2 1-1077): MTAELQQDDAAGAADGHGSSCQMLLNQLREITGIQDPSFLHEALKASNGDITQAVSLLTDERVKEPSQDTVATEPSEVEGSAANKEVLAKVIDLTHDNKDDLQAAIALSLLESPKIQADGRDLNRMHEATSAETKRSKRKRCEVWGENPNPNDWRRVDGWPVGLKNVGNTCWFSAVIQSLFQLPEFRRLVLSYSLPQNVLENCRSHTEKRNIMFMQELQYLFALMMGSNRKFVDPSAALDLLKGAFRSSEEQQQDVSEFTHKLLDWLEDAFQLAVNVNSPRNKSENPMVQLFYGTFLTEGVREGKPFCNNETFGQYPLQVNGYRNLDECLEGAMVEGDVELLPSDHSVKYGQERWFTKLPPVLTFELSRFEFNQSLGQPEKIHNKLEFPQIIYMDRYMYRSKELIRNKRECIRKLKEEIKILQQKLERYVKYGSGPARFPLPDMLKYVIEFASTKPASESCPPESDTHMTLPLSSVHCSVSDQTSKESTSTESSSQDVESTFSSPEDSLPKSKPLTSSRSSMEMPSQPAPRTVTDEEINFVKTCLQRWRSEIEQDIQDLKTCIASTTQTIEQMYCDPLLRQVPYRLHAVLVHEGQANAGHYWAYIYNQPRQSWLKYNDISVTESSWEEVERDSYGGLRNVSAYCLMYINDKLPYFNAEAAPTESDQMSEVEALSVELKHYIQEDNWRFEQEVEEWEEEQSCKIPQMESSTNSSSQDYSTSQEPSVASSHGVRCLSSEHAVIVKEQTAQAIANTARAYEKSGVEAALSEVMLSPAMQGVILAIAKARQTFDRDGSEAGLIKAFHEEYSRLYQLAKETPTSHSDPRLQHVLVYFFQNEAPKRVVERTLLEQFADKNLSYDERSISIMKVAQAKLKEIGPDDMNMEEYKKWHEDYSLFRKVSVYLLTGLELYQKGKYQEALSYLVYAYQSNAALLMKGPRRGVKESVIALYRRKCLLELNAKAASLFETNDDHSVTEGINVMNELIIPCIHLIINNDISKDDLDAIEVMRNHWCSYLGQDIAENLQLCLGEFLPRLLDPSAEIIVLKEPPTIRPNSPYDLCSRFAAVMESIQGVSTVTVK
Procedure: USP28 activity was determined by the ubiquitin-rhodamine 110 (Ub-Rh110) method.
Purified USP28 and a substrate Ub-Rh110 used for determining deubiquitinase activity were purchased from R&D Systems China Co., Ltd. (R&D Systems). First, test compounds were each dissolved in DMSO to prepare a 10 mM stock solution, and then the stock solution was diluted to the desired concentration (with a DMSO content of 0.5%) with a buffer solution [containing 20 mM Tris-HCl (pH 8.0), 2 mM CaCl2), 3 mM BME, 0.01% Prionex, and 0.01% Triton X-100]. The prepared test compound solutions at different concentrations were mixed uniformly with USP28 (final concentration: 4 nM) in a 96-well plate, and the mixture was incubated at r. t. for 30 min before the addition of Ub-Rh110 to 125 nM. The final volume of the whole reaction system was 20 μL. The released fluorescence (excitation wavelength: 485 nm, emission wavelength: 535 nm) was detected immediately on a microplate reader after the addition of the substrate. A blank control group (DMSO instead of test compound) and a substrate group (no USP28 added) were set simultaneously. The inhibitory rates of the test compounds for USP28 were calculated according to the following formula:
Inhibition %=(1−[(fluorescence valuetest compound−fluorescence valuesubstrate)/(fluorescence valuecontrol−fluorescence valuesubstrate])×100%
According to the inhibitory rates of the test compounds for USP28 under different concentrations, IC50 values were calculated.
(§1) With reference to Example 2 and Example 3, USP28 and USP25 inhibitor activity tests were performed on representative example compounds of the present disclosure and the following comparative compound structures.

USP25 = target: T2, USP25 (Homo sapiens, UniProt Q9UHP3); experiment: USP25 activity by the Ub-Rh110 method; format: biochemical; conditions: purified USP25 15 nM, Ub-Rh110 125 nM; read-out: Inhibitory activity (IC50) USP25
T2 construct: purchased R&D Systems
T2 sequence (Q9UHP3 1-1055): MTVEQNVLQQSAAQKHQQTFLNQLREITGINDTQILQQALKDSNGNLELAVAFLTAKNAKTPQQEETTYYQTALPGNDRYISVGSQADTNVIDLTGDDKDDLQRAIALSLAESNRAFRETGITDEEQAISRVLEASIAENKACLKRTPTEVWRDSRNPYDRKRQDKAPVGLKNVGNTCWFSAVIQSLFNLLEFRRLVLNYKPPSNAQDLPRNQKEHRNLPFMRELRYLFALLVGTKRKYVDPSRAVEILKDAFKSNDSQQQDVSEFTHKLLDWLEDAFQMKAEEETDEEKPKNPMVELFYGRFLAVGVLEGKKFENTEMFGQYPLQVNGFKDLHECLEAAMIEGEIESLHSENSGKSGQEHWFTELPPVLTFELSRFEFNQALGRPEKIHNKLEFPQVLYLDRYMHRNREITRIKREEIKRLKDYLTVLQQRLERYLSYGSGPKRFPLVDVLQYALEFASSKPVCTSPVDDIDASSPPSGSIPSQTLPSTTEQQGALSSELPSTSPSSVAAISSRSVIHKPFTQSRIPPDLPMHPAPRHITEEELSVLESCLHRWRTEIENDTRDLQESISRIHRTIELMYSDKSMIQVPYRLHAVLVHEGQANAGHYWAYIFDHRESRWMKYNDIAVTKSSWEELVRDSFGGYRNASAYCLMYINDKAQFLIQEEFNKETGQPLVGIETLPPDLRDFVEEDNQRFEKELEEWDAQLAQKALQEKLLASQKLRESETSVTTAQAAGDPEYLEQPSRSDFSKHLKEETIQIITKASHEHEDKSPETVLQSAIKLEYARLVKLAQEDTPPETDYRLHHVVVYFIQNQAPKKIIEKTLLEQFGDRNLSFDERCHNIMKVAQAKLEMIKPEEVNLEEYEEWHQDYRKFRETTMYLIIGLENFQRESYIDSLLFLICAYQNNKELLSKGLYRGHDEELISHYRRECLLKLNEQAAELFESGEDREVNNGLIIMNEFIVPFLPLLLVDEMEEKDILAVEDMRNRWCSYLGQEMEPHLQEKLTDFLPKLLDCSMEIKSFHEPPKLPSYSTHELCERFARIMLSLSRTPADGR
Procedure: USP25 activity was determined by the Ub-Rh110 method.
Purified USP25 was purchased from R&D Systems. The experimental procedures were the same as those in Example 2. The final concentration of USP25 was 15 nM, the final concentration of the substrate Ub-Rh110 was 125 nM, and the final volume of the whole reaction system was 20 μL.
as §1

Compound | IC50 (USP28) [nM] | IC50 (USP25) [nM]
CCn1ccc2c(Cl)c(C(=O)NCCc3ccc(N4CC5CCC(C4)N5)cc3)cnc21 [Compound I-01, N-4-(3,8-diazabicyclo[3.2.1]octan-3-yl)phenethyl-4-chloro-1-ethyl-1H-pyrrolo[2,3-b]pyridine-5-carboxamide] | 1000 to 10000 | 1000 to 10000
CCn1ccc2c(NC)c(C(=O)NCCc3ccc(N4CC5CCC(C4)N5)cc3)cnc21 [Compound I-02, N-4-(3,8-diazabicyclo[3.2.1]octan-3-yl)phenethyl-1-ethyl-4-methylamino-1H-pyrrolo[2,3-b]pyridine-5-carboxamide] | < 50 | < 50
CCNc1c(C(=O)NCCc2ccc(N3CC4CCC(C3)N4)cc2)cnc2c1ccn2CC [Compound I-03] | 500 to 1000 | 500 to 1000
CCCNc1c(C(=O)NCCc2ccc(N3CC4CCC(C3)N4)cc2)cnc2c1ccn2CC [Compound I-04] | 1000 to 10000 | > 10000
CCn1ccc2c(NC)c(C(=O)NCCc3ccc(N4CC5CCC(C4)N5)cc3F)cnc21 [Compound I-05] | < 50 | 50 to 500
CCn1ccc2c(NC)c(C(=O)NCC(C)(C)c3ccc(N4CC5CCC(C4)N5)cc3F)cnc21 [Compound I-06] | 50 to 500 | 500 to 1000
CCn1ccc2c(NC)c(C(=O)NCCc3ccc(N4CCNCC4)cc3)cnc21 [Compound I-07] | < 50 | < 50
CCn1ccc2c(NC)c(C(=O)NCCc3c[nH]c4ccccc34)cnc21 [Compound I-08] | < 50 | 50 to 500
CCn1ccc2c(NC)c(C(=O)NCCc3ccc(OC)c(OC)c3)cnc21 [Compound I-09] | 50 to 500 | 50 to 500
CCn1ccc2c(NC)c(C(=O)NCCc3ccc(Br)cc3)cnc21 [Compound I-10] | – | > 10000
CNc1c(C(=O)NCCc2ccc(N3CC4CCC(C3)N4)cc2)cnc2[nH]ccc12 [Compound I-11] | 50 to 500 | 500 to 1000
CNc1c(C(=O)NCCc2ccc(N3CC4CCC(C3)N4)cc2)cnc2c1ccn2C [Compound I-12] | < 50 | 50 to 500
CCCn1ccc2c(NC)c(C(=O)NCCc3ccc(N4CC5CCC(C4)N5)cc3)cnc21 [Compound I-13] | < 50 | < 50
CCCCn1ccc2c(NC)c(C(=O)NCCc3ccc(N4CC5CCC(C4)N5)cc3)cnc21 [Compound I-14] | < 50 | < 50
CNc1c(C(=O)NCCc2ccc(N3CC4CCC(C3)N4)cc2)cnc2c1ccn2CC(F)(F)F [Compound I-15] | < 50 | < 50
CNc1c(C(=O)NCCc2ccc(N3CCNCC3)cc2)cnc2c1ccn2CC(F)(F)F [Compound I-16] | < 50 | < 50
CCn1ccc2c(NC)c(C(=O)NCCc3ccc(C4CC5CCC(C4)N5)cc3)cnc21 (stereo not shown) [Compound I-17] | < 50 | 50 to 500

Compound | IC50 (USP28) [nM] | IC50 (USP25) [nM]
CCn1ccc2c(NC)c(C(=O)NCCc3ccc(C4C5CCC4CNC5)cc3)cnc21 (stereo not shown) [Compound I-18] | – | 50 to 500
CCn1ccc2c(NC)c(C(=O)NCCc3ccc(N4C5CCC4CNC5)cc3)cnc21 [Compound I-19] | < 50 | 50 to 500
CCn1ccc2c(NC)c(C(=O)NCCc3ccc(C4CCNCC4)cc3)cnc21 [Compound I-20] | < 50 | 50 to 500
CCn1ccc2c(NC)c(C(=O)NC[C@H](C)c3ccc(N4CC5CCC(C4)N5)cc3)cnc21 [Compound I-21] | 50 to 500 | 500 to 1000
CCn1ccc2c(NC)c(C(=O)NC[C@@H](C)c3ccc(N4CC5CCC(C4)N5)cc3)cnc21 [Compound I-22] | 50 to 500 | 500 to 1000
CCn1ccc2c(NC)c(C(=O)N[C@H]3COc4cc(N5CC6CCC(C5)N6)ccc4C3)cnc21 [Compound I-23] | < 50 | < 50
CCn1ccc2c(NC)c(C(=O)N[C@@H]3COc4cc(N5CC6CCC(C5)N6)ccc4C3)cnc21 [Compound I-24] | 50 to 500 | 500 to 1000
CCn1ccc2c(NC)c(C(=O)N[C@H]3CCc4cc(N5CC6CCC(C5)N6)ccc4C3)cnc21 [Compound I-25] | < 50 | 50 to 500
CCn1ccc2c(NC)c(C(=O)N[C@@H]3CCc4cc(N5CC6CCC(C5)N6)ccc4C3)cnc21 [Compound I-26] | 50 to 500 | 500 to 1000
CCn1ccc2c(NC)c(C(=O)NCCc3ccc(N4CC5CCC(C4)N5)cc3)nnc21 [Compound I-27] | < 50 | < 50
CCn1ccc2c(NC)c(C(=O)NCCc3ccc(N4CCNCC4)cc3)nnc21 [Compound I-28] | < 50 | < 50
CCn1ccc2c(NC)c(C(=O)NCCc3ccc(N4CC5CCC(C4)N5)cc3F)nnc21 [Compound I-29] | < 50 | 50 to 500
CCn1cc(Cl)c2c(NC)c(C(=O)NCCc3ccc(N4CC5CCC(C4)N5)cc3)cnc21 [Compound I-30] | < 50 | 50 to 500
COc1c(C(=O)NCCc2ccc(N3CC4CCC(C3)N4)cc2)cnc2c1ccn2C [Compound I-31] | 1000 to 10000 | > 10000
CCn1ccc2c(OC)c(C(=O)NCCc3ccc(N4CC5CCC(C4)N5)cc3)cnc21 [Compound I-32] | 50 to 500 | 1000 to 10000
CCn1ccc2c(OC)c(C(=O)NCCc3ccc(N4CCNCC4)cc3)cnc21 [Compound I-33] | 50 to 500 | 1000 to 10000
